We go through one compound from PMC4766439, “Discovery of novel PDE9 inhibitors capable of inhibiting Aβ aggregation as potential candidates for the treatment of Alzheimer’s disease” (Scientific Reports, 2016).

Usually logP stands for a log measure of how a compound divides between an organic and an aqueous phase. As usually defined, the IC50 is the concentration needed to halve the response being measured.

A short description of series [1]: Lipid-water distribution coefficient, shake-flask 1-octanol/water. The conditions noted are these: 1-octanol/water (1:1), means of at least three independent tests. Format: physicochemical.
The target of series [2] is T1, PDE7A1 (130–482) (Homo sapiens, UniProt Q13946).
T1 construct: PDE7A1 (130–482)
As to the kind of experiment: PDE activity assay, PDE7A1 catalytic domain. It is filed as biochemical.
Experimental: (§1) The enzymatic activities of the catalytic domains of PDE9 and other PDEs were measured by using cGMP or cAMP as substrates. The assay buffer contained 20–50 mM Tris–HCl (pH 7.5–8.0), 10 mM MgCl2 or 4 mM MnCl2, 1 mM DTT, and 10–20 nM ^3H-cGMP or ^3H-cAMP (20000–30000 cpm/assay, GE Healthcare). The reaction was performed at room temperature for 15 min and then terminated by the addition of 0.2 M ZnSO4. The addition of 0.25 M BaSO4 precipitated the generated ^3H-GMP, whereas the unreacted ^3H-cGMP remained in solution. The radioactivity in the supernatant was measured in 2.5 mL with an Ultim Gold liquid scintillation counter. […] The IC50 values were calculated by nonlinear regression method by using GraphPad Prism 5.0 Software.

Series [3] has as its target T2, PDE1B2 (10–487) (Homo sapiens, UniProt Q01064).
T2 construct: PDE1B2 (10–487)
As to the kind of experiment: PDE activity assay, PDE1B2 catalytic domain. It is filed as biochemical.
Experimental: as §1

Series [4] concerns the target T3, PDE10A2 (448–789) (Homo sapiens, UniProt Q9Y233).
T3 construct: PDE10A2 (448–789)
As to the kind of experiment: PDE activity assay, PDE10A2 catalytic domain. Format: biochemical.
Experimental: as §1

Series [5] deals with T4, PDE4D2 (86–413) (Homo sapiens, UniProt Q08499).
T4 construct: PDE4D2 (86–413)
Put plainly: PDE activity assay, PDE4D2 catalytic domain. It is filed as biochemical.
Experimental: as §1

The target in series [6] is PDE5A1 (535–860) (Homo sapiens, UniProt O76074). Put plainly: PDE activity assay, PDE5A1 catalytic domain. Format: biochemical.
Experimental: as §1
Series [7] concerns the target T5, Aβ1-42 (Homo sapiens, UniProt P05067).
T5 construct: purchased Sigma
As to the kind of experiment: Transmission electron microscopy (TEM) assay of Aβ1-42. Format: biochemical. The conditions noted are these: [Aβ1-42] = 25 μM, compound 50 μM, [Cu^2+] = 25 μM, 37 °C, 24 h. How it is done: The assays were performed as reported previously. For the TEM assay of copper (II)-induced Aβ1-42 aggregation and the disaggregation of the fibrils, the samples were pretreated as described for the ThT assay. Samples (10 μL) were placed on a carbon-coated copper/rhodium grid for 2 min. Then, each grid was stained with uranyl acetate (1%, 5 μL) for 2 min. After the excess staining solution was drained off, the specimen was transferred for imaging by a transmission electron microscope (JEOL JEM-1400).

Series [8] deals with T6, PDE3A (679–1087) (Homo sapiens, UniProt Q14432).
T6 construct: PDE3A (679–1087)
As to the kind of experiment: PDE activity assay, PDE3A catalytic domain. Format: biochemical.
Experimental: as §1

Series [9] in a line: Cu-ascorbate redox system (CCA fluorescence). The conditions noted are these: [Cu^2+] = 5 μM, [16] = 15 μM, ascorbate 150 μM, CCA 50 μM, PBS pH 7.4. The protocol:
The experiments were performed as reported previously. […]. Then, ascorbate (150 μM) was added to the solution, and the fluorescence was recorded every 20 s (λexcitation = 395 nm, λemission = 450 nm). Each experiment was performed in triplicate. All test solutions contained 1 μM desferryl and 0.1% methanol.

The subject of series [10] is SH-SY5Y cells. As to the kind of experiment: Intracellular antioxidant activity (DCFH-DA, t-BuOOH). It is filed as cell-based, human. The conditions noted are these: t-BuOOH-induced; 5 μM of 16 vs 10 μM of Trolox. The protocol:
Cell culture was performed as reported previously. The human neuron-like cell line SH-SY5Y was obtained from the Institute of Biochemistry and Cell Biology, Shanghai Institute for Biological Sciences (Shanghai, China). The cells were cultured at 37 °C in a humidified atmosphere of 5% CO2 in Dulbecco’s modified Eagle’s medium (DMEM, GIBCO) supplemented with 10% fetal calf serum (FCS, GIBCO), 1 mM glutamine, 100 IU/mL penicillin, and 100 μg/mL streptomycin.
The antioxidant activity was determined as reported previously. The SH-SY5Y cells were seeded at a density of 1 × 10^4 cells/well in a 96-well plate. After 24 h, the culture medium was replaced with medium containing tested compounds, and the cells were cultured for an additional 24 h. Then, the cells were washed with PBS and incubated with 5 μM DCFH-DA (diluted by PBS) at 37 °C for 30 min. […] Then, the fluorescence of the cells in each well was measured (λexcitation = 485 nm, λemission = 535 nm) with a multifunctional microplate reader (Flex Station 3). The antioxidant activity was expressed as a percentage relative to that of the control cells and calculated using the formula (Ft – Fnt)/(Ft’ – Fnt) ×100, where Ft is the fluorescence value of the cells treated with the tested compound, Ft’ is the fluorescence value of the cells not treated with the tested compound, and Fnt is the fluorescence value of the cells treated with t-BuOOH.

Series [11] addresses T7, PDE2A3 (580–941) (Homo sapiens, UniProt O00408).
T7 construct: PDE2A3 (580–941)
As to the kind of experiment: PDE activity assay, PDE2A3 catalytic domain. It is filed as biochemical.
Experimental: as §1

In series [12] the target is T8, PDE8A1 (480–820) (Homo sapiens, UniProt O60658).
T8 construct: PDE8A1 (480–820)
Put plainly: PDE activity assay, PDE8A1 catalytic domain. Format: biochemical.
Experimental: as §1

Series [13] has as its system SH-SY5Y cells. Put plainly: MTT cytotoxicity assay. As to conditions: below the 10 μM concentration, 48 h. It is filed as cell-based, human. In general terms: Tetrazolium dyes change colour on reduction, which living cells bring about.
Series [14] in a line: PAMPA-BBB in vitro blood-brain barrier permeation assay. It is filed as in vitro ADME.
Experimental: The blood–brain barrier penetration capacity of the compounds was evaluated by using the parallel artificial membrane permeation assay (PAMPA). […] The porcine brain lipid (PBL) was obtained from Avanti Polar Lipids. The donor microplate (PVDF membrane, pore size of 0.45 nm) and the acceptor microplate were from Millipore. The acceptor 96-well microplate (COSTAR) was filled with 300 μL of a PBS/EtOH mixture (7:3) and the filter membrane was impregnated with 4 μL of PBL in dodecane (20 mg/mL). The compounds were dissolved in DMSO at a concentration of 5 mg/mL and diluted with the PBS/EtOH mixture (7:3) to a concentration of 100 μg /mL. Then, 200 μL of this solution was added to the donor wells and the wells were carefully placed on the acceptor plate, which was then incubated for 10 h at 25 °C in a vibrationless environment. After the incubation, the donor plate was removed and the concentration of compounds in the acceptor wells was determined with a UV plate reader (Flexstation 3). Each sample was analyzed at five wavelengths in four wells, and at least three independent runs were performed. The results are expressed as the mean ± standard deviation. In these experiments, 13 quality control standards of known BBB permeability were included to validate the analysis set.
where Vd is the volume in the donor well, Va is the volume in acceptor well, A is the filter area, t is the permeation time, [drug]acceptor is the absorbance of the compound in the acceptor well, and [drug]equilibrium is the theoretical equilibrium absorbance.
Series [15] is described as follows: Oxygen Radical Absorbance Capacity (ORAC-FL) assay. As to conditions: Trolox as standard.
Experimental: The assays were performed in 75 mM PBS (pH 7.4) and all the tested compounds were dissolved in DMSO and diluted with the PBS. Trolox was used as a standard (1–10 μM final concentration). The tested compounds at different concentrations (20 μL, final concentration: 2 μM) and fluorescein (FL, 120 μL, final concentration: 300 nM) were placed in the wells of a black 96-well plate. The mixture was incubated for 10 min at 37 °C and then, APPH solution (60 μL, final concentration: 12 mM diluted by 75 mM PBS) was added rapidly. […] A blank (FL + AAPH), with PBS replacing the compounds and Trolox was used for calibration in each assay. The compounds were tested at different concentrations (0.5–10 μM). The experiments were performed in three independent runs for each sample. The fluorescence measurements were normalized to that of the blank (without antioxidant). The area under the fluorescence decay curve (AUC) was calculated using the following equation (eq. 2):
where f0 is the fluorescence reading at 0 min and fi is the fluorescence reading at time i. The net AUC was calculated by the expression AUCsample − AUCblank. Regression equations between net AUC and Trolox concentrations were calculated. The final results were expressed in μM of Trolox equivalent/μM of pure compounds.
For series [16], the target named is T9, Aβ1-42 fibrils (Homo sapiens, UniProt P05067).
T9 construct: purchased Sigma
As to the kind of experiment: ThT assay, disaggregation of Cu^2+-induced Aβ1-42 fibrils. Format: biochemical. The conditions noted are these: [Aβ1-42] = 25 μM, compound 50 μM, [Cu^2+] = 25 μM, additional 24 h. The protocol: For assaying the disaggregation of the copper (II)-induced Aβ1-42 fibrils, the Aβ1-42 stock solution was first diluted in HEPES buffer ([…], pH 6.6). The mixture of the peptide (10 μL, 25 μM final concentration) and copper (II) (10 μL, 25 μM final concentration) was then incubated at 37 °C for 24 h. Then, the test compound (10 μL, 50 μM final concentration) was added and incubated at 37 °C for an additional 24 h. Thereafter, 30 μL of the sample was diluted to a final volume of 200 μL with 50 mM glycine-NaOH buffer (pH 8.0) containing thioflavin-T (5 μM) in the dark. The detection method used was the same as that described above.

The nature of series [17]: Metal-chelating capacity by UV-vis spectrophotometry. Format: physicochemical. The conditions noted are these: 30% (v/v) ethanol/buffer, pH 7.4. The protocol:
The experiments were performed according to previously reported methods. The metal chelation was monitored spectrophotometrically using a UV–vis spectrophotometer. […].

Each structure is given as a SMILES string.

T5 sequence (P05067 672-713 limits assumed): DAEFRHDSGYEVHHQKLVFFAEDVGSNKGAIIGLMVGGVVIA
T4 sequence (Q08499 388-715): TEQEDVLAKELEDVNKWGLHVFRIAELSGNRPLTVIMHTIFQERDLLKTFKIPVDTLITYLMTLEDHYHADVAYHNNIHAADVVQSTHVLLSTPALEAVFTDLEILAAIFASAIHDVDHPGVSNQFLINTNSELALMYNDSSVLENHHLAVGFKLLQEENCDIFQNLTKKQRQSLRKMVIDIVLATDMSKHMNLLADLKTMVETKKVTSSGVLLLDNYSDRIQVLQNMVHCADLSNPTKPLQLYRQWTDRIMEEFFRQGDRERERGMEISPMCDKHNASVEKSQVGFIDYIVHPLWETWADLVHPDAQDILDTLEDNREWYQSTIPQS
T8 sequence (O60658 480-820): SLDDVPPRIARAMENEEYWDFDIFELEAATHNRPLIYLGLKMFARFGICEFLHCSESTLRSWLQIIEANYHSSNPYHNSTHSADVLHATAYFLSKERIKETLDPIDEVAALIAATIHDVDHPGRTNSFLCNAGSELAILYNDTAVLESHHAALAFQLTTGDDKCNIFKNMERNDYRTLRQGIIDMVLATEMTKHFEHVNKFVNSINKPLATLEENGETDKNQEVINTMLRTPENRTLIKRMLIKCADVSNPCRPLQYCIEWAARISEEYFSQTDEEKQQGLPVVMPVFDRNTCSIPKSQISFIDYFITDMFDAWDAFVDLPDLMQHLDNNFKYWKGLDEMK
T2 sequence (Q01064 10-487 isoform Q01064-2): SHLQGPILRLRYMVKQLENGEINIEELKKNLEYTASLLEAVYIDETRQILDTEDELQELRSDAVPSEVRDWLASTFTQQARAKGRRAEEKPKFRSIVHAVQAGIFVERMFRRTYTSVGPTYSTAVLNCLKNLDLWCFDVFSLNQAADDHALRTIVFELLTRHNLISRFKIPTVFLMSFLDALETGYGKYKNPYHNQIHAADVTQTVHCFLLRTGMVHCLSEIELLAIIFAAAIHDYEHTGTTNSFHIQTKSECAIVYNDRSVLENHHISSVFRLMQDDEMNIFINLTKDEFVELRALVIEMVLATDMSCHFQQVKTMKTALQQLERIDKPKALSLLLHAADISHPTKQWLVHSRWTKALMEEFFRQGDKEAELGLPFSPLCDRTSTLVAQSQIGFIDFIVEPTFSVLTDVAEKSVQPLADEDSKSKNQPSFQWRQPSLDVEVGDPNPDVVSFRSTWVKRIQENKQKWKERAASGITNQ
T7 sequence (O00408 580-941): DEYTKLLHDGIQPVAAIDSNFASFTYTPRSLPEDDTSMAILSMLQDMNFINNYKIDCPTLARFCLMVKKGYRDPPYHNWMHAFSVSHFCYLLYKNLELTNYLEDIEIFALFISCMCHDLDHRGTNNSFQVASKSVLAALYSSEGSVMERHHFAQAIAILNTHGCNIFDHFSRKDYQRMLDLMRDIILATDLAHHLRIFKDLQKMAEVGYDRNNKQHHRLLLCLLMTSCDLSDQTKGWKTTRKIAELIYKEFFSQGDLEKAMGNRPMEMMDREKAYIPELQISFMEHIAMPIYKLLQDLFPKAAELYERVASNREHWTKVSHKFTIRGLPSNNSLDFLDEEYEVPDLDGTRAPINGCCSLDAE
T6 sequence (Q14432 679-1087): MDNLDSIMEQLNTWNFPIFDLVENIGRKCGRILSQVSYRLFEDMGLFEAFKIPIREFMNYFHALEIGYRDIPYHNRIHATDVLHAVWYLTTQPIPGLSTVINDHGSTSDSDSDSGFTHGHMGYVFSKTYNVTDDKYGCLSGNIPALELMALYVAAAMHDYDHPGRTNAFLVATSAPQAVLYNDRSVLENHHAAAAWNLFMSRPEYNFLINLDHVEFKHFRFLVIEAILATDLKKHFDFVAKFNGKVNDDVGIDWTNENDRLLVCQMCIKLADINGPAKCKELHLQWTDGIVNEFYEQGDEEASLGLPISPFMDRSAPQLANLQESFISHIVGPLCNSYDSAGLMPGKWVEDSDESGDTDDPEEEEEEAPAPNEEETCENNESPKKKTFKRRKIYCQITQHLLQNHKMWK
T1 sequence (Q13946 130-482): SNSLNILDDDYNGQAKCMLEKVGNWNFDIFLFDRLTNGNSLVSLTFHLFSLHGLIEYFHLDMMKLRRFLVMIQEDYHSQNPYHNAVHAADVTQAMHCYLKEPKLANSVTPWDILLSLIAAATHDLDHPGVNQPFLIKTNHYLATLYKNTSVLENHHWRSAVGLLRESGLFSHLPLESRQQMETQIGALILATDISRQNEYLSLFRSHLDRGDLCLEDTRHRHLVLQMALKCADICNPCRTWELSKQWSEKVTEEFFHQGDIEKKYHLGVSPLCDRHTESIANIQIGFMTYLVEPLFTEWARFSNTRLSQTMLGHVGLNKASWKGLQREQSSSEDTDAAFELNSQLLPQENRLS
T9 sequence (P05067 672-713 limits assumed): as the sequence (P05067 672-713 limits assumed) above
T3 sequence (Q9Y233 714-1055): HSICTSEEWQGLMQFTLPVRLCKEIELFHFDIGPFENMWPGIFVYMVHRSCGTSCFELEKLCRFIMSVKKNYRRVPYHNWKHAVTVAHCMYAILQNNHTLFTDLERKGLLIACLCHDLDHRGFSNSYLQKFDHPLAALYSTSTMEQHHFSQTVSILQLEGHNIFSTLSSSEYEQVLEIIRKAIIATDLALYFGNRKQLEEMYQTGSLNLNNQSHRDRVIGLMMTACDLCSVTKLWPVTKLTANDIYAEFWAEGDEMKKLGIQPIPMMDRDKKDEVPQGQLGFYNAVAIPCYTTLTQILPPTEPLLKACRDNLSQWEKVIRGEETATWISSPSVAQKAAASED

In series [1], `COc1ccc(CN[C@H](C)c2nc3c(cnn3C3CCCC3)c(=O)[nH]2)c(O)c1` [Compound 16] returned a logP at 30 min of 1.1. The IC50 was more than 50000 nM in [2]; 17000 nM in series [3]; 6900 nM in series [4]; 25000 nM in [5]; 1900 nM in series [6]; more than 10000 nM in [8]. Besides, the IC50 in series [11] and in series [12] was more than 50000 nM throughout. The “Aβ fibrils by TEM, disaggregation of preformed fibrils” value in series [7] is reported as “drastically reduced the amount of Aβ fibrils”. Further, the “Aβ fibrils by TEM, inhibition of Cu^2+-induced aggregation” value in series [7] is “fewer fibrils were observed than in the presence of CQ”. For the same compound, the “copper redox cycling, OH· production (7-hydroxyl-CCA fluorescence)” value in series [9] is reported as “fully inhibited”. Also, the “intracellular antioxidant activity (ROS, DCFH-DA)” value in series [10] was “superior antioxidant activity to that of Trolox”. In addition, in series [13], the “cytotoxicity toward SH-SY5Y cells (MTT)” value is on record as “nearly no toxicity”. Besides, the Papp at 10 h, 100 μg/mL in [14] (PAMPA, PBS:EtOH (70:30), mean ± SD of three independent experiments, read-out: Permeability) turned out to be 17 ×10⁻⁶ cm/s. Besides, the “prediction of penetration into the CNS” value in series [14] (from PAMPA-BBB Pe) is on record as “CNS+ (Compounds of high BBB permeation (CNS+) Pe > 4.7)”. Moreover, the ORAC in series [15] is listed as 4.47 ± 0.10 μmol of Trolox equiv/μmol tested compound. The “oxygen radical absorbance capacity, ORAC-FL value” in [15] amounted to 4.47 ORAC-FL units. Further, the “disaggregation of Cu^2+-induced Aβ1-42 fibrils (ThT)” value in series [16] is on record as 64.6%. The “chelation of Cu^2+, Fe^2+, Zn^2+ (UV-vis absorbance changes)” value in series [17] was “formation of 16-Metal ion (II) complex”. For the same compound, in [17], the “chelation of Fe^3+ (UV-vis)” value is listed as “failed to chelate Fe^3+ effectively”.
